The source of these data is US20250186391A1, “ORAL COMPLEMENT FACTOR D INHIBITORS” (BioCryst Pharmaceuticals, Inc., priority 2019, published 2025).

As a reminder, the IC50 is the concentration needed to halve the response being measured.

Sequence of Factor D (P00746 26-253): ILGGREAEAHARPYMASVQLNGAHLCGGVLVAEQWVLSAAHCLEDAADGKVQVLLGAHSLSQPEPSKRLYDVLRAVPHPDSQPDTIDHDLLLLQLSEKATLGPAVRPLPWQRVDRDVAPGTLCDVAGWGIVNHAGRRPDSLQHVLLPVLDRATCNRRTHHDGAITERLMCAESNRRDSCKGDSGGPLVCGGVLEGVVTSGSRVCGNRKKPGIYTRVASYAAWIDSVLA

The target in the experiment is Factor D (Homo sapiens (Human), UniProt P00746). The experiment in a line: Factor D esterolytic assay. The note with it: Z-Lys-SBzl substrate, 100 mM HEPES, 500 mM NaCl, pH 7.5, 10% DMSO; tested a minimum of three times; read-out: Measured Ki (IC50) Value for Compounds: IC50. The format is biochemical. How it is done:
The IC50 value of a compound (i.e., the concentration of the compound that inhibits 50% of the enzymatic activity) was calculated according to the procedure reported in U.S. Pat. No. 6,653,340 B1, e.g., column 74 (incorporated by reference).
Specifically, the compounds were dissolved in a stock solution of DMSO at 10.0 or 100 mM. A portion of this stock solution was added to assay buffer in a final volume of 50 μL. Controls included buffer alone and enzyme solutions to which DMSO was added. Substrate was added to the reaction wells immediately or after incubation at room temperature. The reaction rates were measured spectrophotometrically by the generation of product at 405 nm for 600 sec. Background absorbance at 690 nm was measured and subtracted from the absorbance at 405 nm for each well.
The reaction rate for enzyme alone was compared to the rate of enzyme in the presence of inhibitor and the percent inhibition was calculated as shown below: […]
An established esterolytic assay for the measurement of Factor D activity and inhibition of Factor D activity was used (Kam, C. M.; McRae, B. J.; Harper, J. W.; Niemann, M. A.; Volanakis, J. E.; Powers, J. C. Human complement proteins D, C2, and B Active site mapping with peptide thioester substrates. J Biol. Chem. 1987, 262, 3444-3451). For this assay Z-Lys-SBzl, 1.29 mM (Kim, S.; Narayana, S. V. L; Volanakis, J. E. Mutational analysis of the substrate binding site of human complement Factor D. Biochemistry. 1994, 33, 14393-14399.) was used as the substrate for Factor D ([…]). Hydrolysis of this compound by Factor D liberated a free sulfhydryl group which is then reacted with 5,5′-dithiobis(2nitrobenzoic acid) producing an intense yellow color (Habeeb, A. F. S. A. Reaction of protein sulfhydryl groups with Ellman's Reagent. Methods in Enzymol. 1976, 25, 457-464.). The assays were performed in 96 well microtiter plates and rates of hydrolysis were monitored at 405 nm on a Biotek Synergy H1 plate reader. Hydrolysis rates were reported as change in mOD/min. The assay was conducted in 100 mM HEPES, 500 mM NaCl, pH 7.5 containing 10% DMSO in a final volume of 50 μL per well.
An IC50, a compound concentration which inhibits 50% of the enzymatic activity, was calculated. Compounds in the examples were tested a minimum of three times.
Regarding `NCc1cccc(-c2cc(NCC3CC3)c3occ(COc4ccccc4CC(=O)O)c3c2)c1` [Compound 85c, 2-(2-((5-(3-(aminomethyl)phenyl)-7-((cyclopropylmethyl)amino)benzofuran-3-yl)methoxy)phenyl)acetic acid], the 50% inhibitory concentration (IC50) is < 1000 nM. `CC(C)(C)OC(=O)c1oc2ccc(-c3cccc(CN)c3)cc2c1COc1ccccc1CC(=O)O` [Compound 86b, 2-(2-((5-(3-(aminomethyl)phenyl)-2-(tert-butoxycarbonyl)benzofuran-3-yl)methoxy)phenyl)acetic acid]: the IC50 is < 1000 nM. For `NCc1cccc(-c2cc(OCCC3CCOCC3)c3occ(COc4ccccc4CC(=O)O)c3c2)c1` [Compound 249f, 2-(2-((5-(3-(aminomethyl)phenyl)-7-(2-(tetrahydro-2H-pyran-4-yl)ethoxy)benzofuran-3-yl)methoxy)phenyl)acetic acid], the IC50 was < 1000 nM. As for `CC(C)(C)OC(=O)N1CCN(Cc2cc(-c3cccc(CN)c3)cc3c(COc4ccccc4CC(=O)O)coc23)CC1` [Compound 121f, 2-(2-((5-(3-(aminomethyl)phenyl)-7-((4-(tert-butoxycarbonyl)piperazin-1-yl)methyl)benzofuran-3-yl)methoxy)phenyl)acetic acid], the IC50 was < 1000 nM.

On to `CC(C)(C)OC(=O)Cc1ccccc1OCc1cc2cc(COc3ccccc3CC(=O)O)cc(-c3cccc(CN)c3)c2o1` [Compound 24a, 2-(2-((7-(3-(aminomethyl)phenyl)-2-((2-(2-(tert-butoxy)-2-oxoethyl)phenoxy)methyl)benzofuran-5-yl)methoxy)phenyl)acetic acid], for which the concentration for half-maximal inhibition (IC50) is < 1000 nM. On to `NCc1cccc(-c2cc(C(F)(F)F)c3occ(COc4ccccc4CC(=O)O)c3c2)c1` [Compound 113g, 2-(2-((5-(3-(aminomethyl)phenyl)-7-(trifluoromethyl)benzofuran-3-yl)methoxy)phenyl)acetic acid], for which the IC50 was < 1000 nM. With `COc1ccc(CC(=O)O)c(OCc2nn(C)c3ccc(-c4cccc(CN)c4F)cc23)c1` [Compound 309b, 2-(2-((5-(3-(aminomethyl)-2-fluorophenyl)-1-methyl-1H-indazol-3-yl)methoxy)-4-methoxyphenyl)acetic acid], the IC50 was < 1000 nM. Regarding `COc1ccc(CC(=O)O)c(OCc2c(C(C)(C)C)oc3ccc(-c4cccc(CN)c4)cc23)c1` [Compound 174c, 2-(2-((5-(3-(aminomethyl)phenyl)-2-(tert-butyl)benzofuran-3-yl)methoxy)-4-methoxyphenyl)acetic acid], the IC50 was < 1000 nM. Regarding `CC(C)n1nc(COc2ccccc2CC(=O)O)c2cc(-c3ccc(CN)cc3)ccc21` [Compound 311c, 2-(2-((5-(4-(aminomethyl)phenyl)-1-isopropyl-1H-indazol-3-yl)methoxy)phenyl)acetic acid], the IC50 was > 10000 nM. Turning to `NCc1cccc(-c2cc(OC[C@H]3CCCO3)c3occ(COc4ccccc4CC(=O)O)c3c2)c1` [Compound 76i, (R)-2-(2-((5-(3-(aminomethyl)phenyl)-7-((tetrahydrofuran-2-yl)methoxy)benzofuran-3-yl)methoxy)phenyl)acetic acid], the IC50 was < 1000 nM. On to `COC[C@H]1CCCN1Cc1cc(-c2cccc(CN)c2)cc2c(COc3ccccc3CC(=O)O)coc12` [Compound 205d, (R)-2-(2-((5-(3-(aminomethyl)phenyl)-7-((2-(methoxymethyl)pyrrolidin-1-yl)methyl)benzofuran-3-yl)methoxy)phenyl)acetic acid], for which the IC50 was < 1000 nM. In the case of `Cc1cccc(CC(=O)O)c1OCc1nn(C(C)C)c2ccc(-c3cccc(CN)c3)cc12` [Compound 306c, 2-(2-((5-(3-(aminomethyl)phenyl)-1-isopropyl-1H-indazol-3-yl)methoxy)-3-methylphenyl)acetic acid], the IC50 is < 1000 nM. On to `CC(C)(C)OC(=O)N(Cc1cc(-c2cccc(CN)c2)cc2c(COc3ccccc3CC(=O)O)coc12)CC(F)(F)F` [Compound 177g, 2-(2-((5-(3-(aminomethyl)phenyl)-7-(((tert-butoxycarbonyl)(2,2,2-trifluoroethyl)amino)methyl)benzofuran-3-yl)methoxy)phenyl)acetic acid], for which the half-inhibitory concentration (IC50) is < 1000 nM. As for `CC(C)n1nc(COc2ccccc2CC(=O)O)c2cc(-c3cccc(CN)c3)ccc21` [Compound 182e, 2-(2-((5-(3-(aminomethyl)phenyl)-1-isopropyl-1H-indazol-3-yl)methoxy)phenyl)acetic acid], the figure is < 1000 nM; as for `CCc1oc2ccc(-c3cccc(CN)c3)cc2c1COc1cc(OC)ccc1CC(=O)O` [Compound 225e, 2-(2-((5-(3-(aminomethyl)phenyl)-2-ethylbenzofuran-3-yl)methoxy)-4-methoxyphenyl)acetic acid], < 1000 nM. Regarding `NCc1cccc(-c2cc(C#CC3CC3)c3occ(COc4ccccc4CC(=O)O)c3c2)c1` [Compound 294d, 2-(2-((5-(3-(aminomethyl)phenyl)-7-(cyclopropylethynyl)benzofuran-3-yl)methoxy)phenyl)acetic acid], the IC50 was < 1000 nM. For the compound `NCc1cccc(-c2ccc3occ(COc4c(CN)cccc4CC(=O)O)c3c2)c1` [Compound 145c, 2-(3-(aminomethyl)-2-((5-(3-(aminomethyl)phenyl)benzofuran-3-yl)methoxy)phenyl)acetic acid], the concentration for half-maximal inhibition (IC50) is < 1000 nM.

Consider `COc1ccc(CC(=O)O)c(OCc2nn(C(C)C)c3ccc(-c4cccc(CN)c4)cc23)c1` [Compound 213c, 2-(2-((5-(3-(aminomethyl)phenyl)-1-isopropyl-1H-indazol-3-yl)methoxy)-4-methoxyphenyl)acetic acid], for which the half-inhibitory concentration (IC50) was < 1000 nM. For the compound `NCc1cccc(-c2cc(-c3c[nH]c4ccccc34)c3occ(COc4ccccc4CC(=O)O)c3c2)c1` [Compound 136d, 2-(2-((5-(3-(aminomethyl)phenyl)-7-(1H-indol-3-yl)benzofuran-3-yl)methoxy)phenyl)acetic acid], the IC50 is < 1000 nM. The value for `Cc1cccc(OCc2coc3ccc(-c4cccc(CN)c4)cc23)c1CC(=O)O` [Compound 108d, 2-(2-((5-(3-(aminomethyl)phenyl)benzofuran-3-yl)methoxy)-6-methylphenyl)acetic acid] was < 1000 nM; that for `CC(C(=O)O)c1ccccc1OCc1coc2c(NCC3CCCC3)cc(-c3cccc(CN)c3)cc12` (stereo not drawn) [Compound 186c, 2-(2-((5-(3-(aminomethyl)phenyl)-7-((cyclopentylmethyl)amino)benzofuran-3-yl)methoxy)phenyl)propanoic acid] was < 1000 nM. The value for `NCc1cc(F)cc(-c2ccc3occ(COc4ccccc4CC(=O)O)c3c2)c1` [Compound 40c, 2-(2-((5-(3-(aminomethyl)-5-fluorophenyl)benzofuran-3-yl)methoxy)phenyl)acetic acid] was < 1000 nM. For the compound `COc1ccc(CC(=O)O)c(OCc2coc3c(NC(C)C)cc(-c4cccc(CN)c4)cc23)c1` [Compound 278c, 2-(2-((5-(3-(aminomethyl)phenyl)-7-(isopropylamino)benzofuran-3-yl)methoxy)-4-methoxyphenyl)acetic acid], the IC50 was < 1000 nM.

Regarding `Cc1ccc(CC(=O)O)c(OCc2coc3c(OCC4CC4)cc(-c4cccc(CN)c4)cc23)c1` [Compound 161c, 2-(2-((5-(3-(aminomethyl)phenyl)-7-(cyclopropylmethoxy)benzofuran-3-yl)methoxy)-4-methylphenyl)acetic acid], the IC50 is < 1000 nM.
